Experimental data taken from patent US11473089B2, “Aptamer for ADAMTS5 and use for aptamer for ADAMTS5” (RIBOMIC INC., priority 2017, dated 2022).
Read-outs that look alike come from different tables or passages of the source.

Key:
ADAMTS5 [1] = biological target: T1, ADAMTS5 (Homo sapiens, UniProt Q9UNA0); test: binding activity to ADAMTS5 by surface plasmon resonance (Biacore T100); details: Table 10
T1 construct: purchased R&D systems
T1 sequence (Q9UNA0 262-930): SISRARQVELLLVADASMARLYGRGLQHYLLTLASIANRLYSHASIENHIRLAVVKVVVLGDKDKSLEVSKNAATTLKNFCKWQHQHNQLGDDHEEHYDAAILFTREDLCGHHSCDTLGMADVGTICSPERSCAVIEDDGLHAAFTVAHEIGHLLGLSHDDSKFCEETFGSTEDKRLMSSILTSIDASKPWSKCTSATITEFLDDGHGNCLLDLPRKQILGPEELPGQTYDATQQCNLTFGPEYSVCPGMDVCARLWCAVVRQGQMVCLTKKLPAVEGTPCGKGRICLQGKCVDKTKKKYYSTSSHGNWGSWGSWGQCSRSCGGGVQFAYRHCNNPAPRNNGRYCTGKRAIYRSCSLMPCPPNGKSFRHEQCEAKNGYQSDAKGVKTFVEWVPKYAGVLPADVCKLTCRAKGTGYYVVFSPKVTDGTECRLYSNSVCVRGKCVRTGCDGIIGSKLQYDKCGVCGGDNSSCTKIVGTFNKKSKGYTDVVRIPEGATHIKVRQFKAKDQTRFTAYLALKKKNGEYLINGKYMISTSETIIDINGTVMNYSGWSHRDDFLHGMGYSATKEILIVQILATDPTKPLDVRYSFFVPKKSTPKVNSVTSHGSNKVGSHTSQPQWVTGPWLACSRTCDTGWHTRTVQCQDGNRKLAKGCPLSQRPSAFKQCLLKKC
Experimental: The binding activity of aptamers having the nucleotide sequences shown in SEQ ID NOs: 1 and 2 to ADAMTS5 was evaluated by the surface plasmon resonance method. Biacore T100 manufactured by GE Healthcare was used for the measurement. The SA chip was used as the sensor chip, which had streptavidin immobilized thereon. About 800 RU of a 16-nucleotide Poly dT with biotin at the 5′-terminal was bound on the chip. […] ADAMTS5 for analyte was prepared at 0.1 μM, and injected at a flow rate of 30 μL/min for 60 sec. As the running buffer, solution C was used. The solution C is a mixed solution of 300 mM sodium chloride, 5.4 mM potassium chloride, 1.8 mM calcium chloride, 0.8 mM magnesium chloride, 20 mM tris (pH 7.6), and 0.05% Tween20.
SEQ ID NO: 2 has a sequence with one base deletion from the continuous 4 G bases in the consensus sequence, and it was shown from the measurement results of the binding activity that the continuous 4 G bases in the consensus sequence are important for the activity of aptamers. Sensorgram showing the binding of an aptamer having the nucleotide sequence shown in SEQ ID NO: 1 to ADAMTS5 is presented in FIG. 2. In Table 1, “++” indicates those with the proportion of ADAMTS5 binding amount (RU value) to the amount of aptamer immobilized on the SA chip (RU value) of not less than 40%, “+” indicates those with the proportion of not less than 10% and less than 40%, and “−” indicates those with the proportion of less than 10%.
The binding activity and enzyme inhibitory activity of aptamers having nucleotide sequences shown in SEQ ID NOs: 16-25 to ADAMTS5 were measured. The binding activity was evaluated by the surface plasmon resonance method. For the measurement, a method similar to that in Example 1 was used. The enzyme inhibitory activity was measured by a method similar to that in Example 1. […] The negative control nucleic acid refers to the nucleic acid pool used in the first round of the SELEX method. The “++” indicates those with the proportion of ADAMTS5 binding amount (RU value) to the amount of aptamer immobilized on the SA chip (RU value) of not less than 40%, and “+” indicates those with the proportion of less than 40%. […] “n.d.” means not determined.
The binding activity of the nucleic acids shown in SEQ ID NOs: 30-45 to ADAMTS5 was measured. The binding activity was evaluated by the surface plasmon resonance method. In the Table, “++” indicates those with the proportion of ADAMTS5 binding amount (RU value) to the amount of aptamer immobilized on the SA chip (RU value) of not less than 40%, “+” indicates those with the proportion of not less than 10% and less than 40%, and “−” indicates those with the proportion of less than 10%.

ADAMTS5 [2] = biological target: T1, ADAMTS5; test: ADAMTS5 enzyme inhibition, aggrecan G1-IGD-G2 cleavage, SDS-PAGE detection (evaluation method 1); type: biochemical; details: for % inhibitory activity: Table 3, final concentration of the nucleic acid 30 nM; for inhibitory activity against ADAMTS5 (in words, compared with parent sequence): enzyme assay as in Example 1; for inhibition rate % (10 nM aptamer): Table 5; for Inhibitory activity against ADAMTS5: Table 4
Experimental: Whether an aptamer having the nucleotide sequence shown in SEQ ID NO: 1 inhibits the enzyme activity of ADAMTS5 was evaluated by the following method. As a substrate of ADAMTS5, the G1-IGD-G2 domain of aggrecan (manufactured by R&D systems) was used. ADAMTS5 specifically cleaves in between the 392nd glutamic acid and the 393rd alanine in the G1-IGD-G2 domain and produces two fragments. These fragments have faster electrophoretic mobility than uncleaved G1-IGD-G2. Thus, the enzyme activity of ADAMTS5 can be measured by quantifying the band intensity of G1-IGD-G2 by SDS-PAGE electrophoresis. The assay was performed in a solution A buffer with a reaction mixture volume of 10 μL. First, a mixture (10 μL) of a nucleic acid and ADAMTS5 was prepared and incubated at 25° C. for 15 min. To a substrate solution (5 μL) diluted with solution A was added a mixture (5 μL) of the nucleic acid and ADAMTS5 to start the enzyme reaction. The final concentration of ADAMTS5 in the reaction solution was 5 nM, and the final substrate concentration was 50 μg/mL. The reaction solution was incubated at 37° C. for 2 hr, 2 μL of solution D was added, and the mixture was heated at 95° C. for 2 min to stop the enzyme reaction of ADAMTS5. Solution D contains 0.25 M tris (pH 6.8), 10% SDS, 50% glycerol, 0.25% bromo phenolblue, and 20% 2-mercaptoethanol. The heat-treated reaction solution was electrophoresed by 7.5% SDS-PAGE and stained with SYPRO Orange (manufactured by Sigma-Aldrich). The staining was performed according to the manual of Sigma-Aldrich and detected using STORM840 manufactured by GE Healthcare. For analytical curves, uncleaved substrates 1000 ng, 400 ng, 160 ng, 64 ng, 25.6 ng, 10.24 ng, and 4.1 ng were electrophoresed, and staining and detection were performed in the same manner. The amount of uncleaved substrate in each reaction solution was quantified from the band intensity and the standard curve. The substrate cleavage efficiency of ADAMTS5 under these reaction conditions was 80-100%. The inhibition rate of the test substance was calculated using the following equation. inhibition rate (%)=(Sapt−SE)/(S0−SE)×100 wherein Sapt is the amount of an uncleaved substrate with the addition of a test substance, SE is the residual amount of an uncleaved substrate with the addition of ADAMTS5, and S0 is the residual amount of an uncleaved substrate without the addition of ADAMTS5.
The concentration of an inhibitor necessary for inhibiting 50% of the enzyme activity (IC50) was determined. IC50 is a mean of four measurements.

[3] = Table 9, electrophoresis detection, 10 nM nucleic acid

35 (GGGUAUUGGGGCCUCCACAGUAAGCACUUGGACUAAACCAGCUCGA; aptamer; 2'-fluoro at CU, RNA at AG, backbone not given here) [compound 35]
binding activity (ADAMTS5 [1]): ++ (proportion of ADAMTS5 binding amount (RU value) to the amount of aptamer immobilized on the SA chip (RU value) of not less than 40%)

9 (GGAUUGGGGCCUCCACAGCGUCGCUUGGACUAAACCAAUCC; 2'-fluoro at CU, RNA at AG, backbone not given here) [compound 9]
% inhibitory activity (ADAMTS5 [2]): 5.9%

28 (CGUAGGGGCCUCCACAGCGUAAGCUUGGACUUAAACCACG; aptamer; 2'-O-methyl modifications copied from another aptamer, pattern not given here, some with 3' inverted dT) [compound 28]
IC50 (ADAMTS5 [2]; Table 8, read-out: IC50): 3.4 nM | inhibitory activity (%) evaluation method 1 (ADAMTS5 [2]; [3]): 81%

5 (GGCUUGGGGCCUCCACAGCGCUCGCUUGGACUAAACCAAGCC; 2'-fluoro at CU, RNA at AG, backbone not given here) [compound 5]
% inhibitory activity (ADAMTS5 [2]): 27%

29 (CGUAGGGGCCUCCACAGCAUUCGCUUGGACACAAACCACG; aptamer; 2'-O-methyl modifications copied from another aptamer, pattern not given here, some with 3' inverted dT) [compound 29]
inhibitory activity % 10 nM aptamer (ADAMTS5 [2]; Table 8, 10 nM aptamer): 84% | inhibitory activity (%) evaluation method 1 (ADAMTS5 [2]; [3]): 84%

14 (AUUGGGGCCUCCACAGCUUCGGCUUGGACUAAACCAAU; listed as RNA, chemistry not given here) [compound 14]
inhibitory activity (%) evaluation method 1 (ADAMTS5 [2]; Table 6, 10 nM aptamer): 60.5% | inhibitory activity against ADAMTS5 (in words, compared with parent sequence) (ADAMTS5 [2]): does not affect the inhibitory activity

31 (GGGUAUUGGGGCCUCCACAGUUGAAGCUUGGACUAAACCAAUCUCGA; aptamer; 2'-fluoro at CU, RNA at AG, backbone not given here) [compound 31]
binding activity (ADAMTS5 [1]): ++ (proportion of ADAMTS5 binding amount (RU value) to the amount of aptamer immobilized on the SA chip (RU value) of not less than 40%)

27 (UAUAGGGGCCUCCACAGCGUAAGCUUGGACUUAAACCAUA; aptamer; 2'-O-methyl modifications copied from another aptamer, pattern not given here, some with 3' inverted dT) [compound 27]
IC50 (ADAMTS5 [2]; Table 8, read-out: IC50): 5.9 nM

8 (GGCUUGGGGCCUCACAGCUGCUCAGCUUGACUAAACCAAGCC; 2'-fluoro at CU, RNA at AG, backbone not given here) [compound 8]
% inhibitory activity (ADAMTS5 [2]): −8.6%

12 (UUGGGGCCUCCACAGCGCUCGCUUGGACUAAACCAA; chemically modified, pattern not given here) [compound 12]
inhibition rate % (10 nM aptamer) (ADAMTS5 [2]; 10 nM aptamer): 71.1%

39 (GGGUAUUGGGGCCUCCACGUAACUAAACUGGACUAAACCAACUCGA; aptamer; 2'-fluoro at CU, RNA at AG, backbone not given here) [compound 39]
binding activity (ADAMTS5 [1]): ++ (proportion of ADAMTS5 binding amount (RU value) to the amount of aptamer immobilized on the SA chip (RU value) of not less than 40%)

13 (GCUGGGGCCUCCACAGCGCUCGCUUGGACUAAACCAGC; chemically modified, pattern not given here) [compound 13]
inhibitory activity (%) evaluation method 1 (ADAMTS5 [2]; Table 6, 10 nM aptamer): 58.4% | inhibitory activity against ADAMTS5 (in words, compared with parent sequence) (ADAMTS5 [2]): does not affect the inhibitory activity

3 (GGAUUGGGGCCUCCACAGCUGCUCAGCUUGGACUAAACCAAUCC; 2'-fluoro at CU, RNA at AG, backbone not given here) [compound 3]
% inhibitory activity (ADAMTS5 [2]): 36.4% | Inhibitory activity against ADAMTS5 (ADAMTS5 [2]; nucleic acid concentration 10 nM): 33.9% | Inhibitory activity against ADAMTS5 (ADAMTS5 [2]; nucleic acid concentration 30 nM): 58.4%

Cn1nc(C(F)(F)F)c(/C=C2\SC(=S)NC2=O)c1SCc1ccc(Cl)cc1 [reference compound]
IC50 (ADAMTS5 [2]; positive control, read-out: IC50 value): 90500 nM

26 (GGGUAUAGGGGCCUCCACAGCGUAAGCUUGGACUUAAACCAUACCC; listed as RNA, chemistry not given here) [compound 26]
inhibitory activity % 30 nM aptamer (ADAMTS5 [2]; Table 8, 30 nM aptamer): 63.5%

7 (GGCUUGGGGCCUCCACAGCUGCUCAGCUUGGACUAACCAAGCC; 2'-fluoro at CU, RNA at AG, backbone not given here) [compound 7]
% inhibitory activity (ADAMTS5 [2]): −2.3%

11 (AUUGGGGCCUCCACAGCGCUCGCUUGGACUAAACCAAU; 2'-F and 2'-O-methyl modifications at positions not given here) [compound 11]
inhibition rate % (10 nM aptamer) (ADAMTS5 [2]; 10 nM aptamer): 59.8% | inhibitory activity (%) evaluation method 1 (ADAMTS5 [2]; Table 6, 10 nM aptamer): 59.8%

10 (AUUGGGGCCUCCACAGCUGCUCAGCUUGGACUAAACCAAU; 2'-F and 2'-O-methyl modifications at positions not given here) [compound 10]
inhibition rate % (10 nM aptamer) (ADAMTS5 [2]; 10 nM aptamer): 65% | inhibitory activity (%) evaluation method 1 (ADAMTS5 [2]; Table 6, 10 nM aptamer): 65%

4 (GGCUUGGGGCCUCCACAGCUGCUCAGCUUGGACUAAACCAAGCC; 2'-fluoro at CU, RNA at AG, backbone not given here) [compound 4]
% inhibitory activity (ADAMTS5 [2]): 23%

6 (GGCUUGGGGCCUCCACAGCUGUCAGCUUGGACUAAACCAAGCC; 2'-fluoro at CU, RNA at AG, backbone not given here) [compound 6]
% inhibitory activity (ADAMTS5 [2]): 33.7%
